Among the test systems are Staphylococcus aureus; Acinetobacter baumannii; Escherichia coli; Candida albicans; Klebsiella pneumoniae; Pseudomonas aeruginosa; Micrococcus luteus.
Common to all, as to test: ≥ marks a high value that may be exact or a test limit, other limits are often not marked, values filed in µg/mL are converted to µM
Experiment [1] concerns Escherichia coli ATCC 25922.
In experiment [2] the test system is Staphylococcus aureus ATCC 29213.
Experiment [3] relates to Acinetobacter baumannii ATCC 19606.
Experiment [4] concerns Enterococcus faecalis ATCC 29212.
Experiment [5] relates to Staphylococcus aureus ATCC 25923.
The test system of experiment [6] is Candida albicans ATCC 10231.
Experiment [7] has as its system Bacillus subtilis ATCC 6633.
Experiment [8] relates to Klebsiella pneumoniae ATCC 700603.
The subject of experiment [9] is Pseudomonas aeruginosa ATCC 9027.
Experiment [10] concerns Staphylococcus aureus ATCC 6538.
Experiment [11] concerns Staphylococcus epidermidis.
Experiment [12] deals with Klebsiella pneumoniae ATCC 13883.
In experiment [13] the test system is Pseudomonas aeruginosa ATCC 27853.

The structures appear in SMILES notation. ≈ marks a conversion by molar mass, not a printed value.

For `C[C@H](NC(=O)[C@@H]1CCCN1C(=O)[C@H](CCCN=C(N)N)NC(=O)[C@H](Cc1ccc(O)cc1)NC(=O)CNC(=O)[C@H](CC(N)=O)NC(=O)[C@@H](N)CO)C(=O)N[C@@H](Cc1ccc(O)cc1)C(=O)N[C@@H](CCCN=C(N)N)C(=O)N1CCC[C@H]1C(=O)N[C@@H](C)C(=O)N[C@@H](Cc1ccc(O)cc1)C(=O)N[C@@H](CCCN=C(N)N)C(=O)N1CCC[C@H]1C(=O)N[C@@H](CO)C(=O)N[C@@H](Cc1ccc(O)cc1)C(=O)N[C@@H](CCCN=C(N)N)C(=O)N1CCC[C@H]1C(N)=O` [SNGYRPAYRPAYRPSYRP], the MIC (usually the smallest concentration in the dilution series that meets the test's criterion for growth inhibition) against Staphylococcus aureus was over 32 µM; in experiment [1], 32 µM (≈ 69.5 µg/mL); with Acinetobacter baumannii, at least 32 µM; in experiment [2], 32 µM (≈ 69.5 µg/mL); with Escherichia coli it was over 32 µM; in experiment [3], over 32 µM.
In the case of `CC(C)C[C@H](NC(=O)[C@@H](NC(=O)[C@H](CCCN=C(N)N)NC(=O)[C@H](CO)NC(=O)[C@H](CC(C)C)NC(=O)[C@H](C)NC(=O)[C@H](CC(N)=O)NC(=O)CNC(=O)[C@H](CC(C)C)NC(=O)[C@H](C)NC(=O)CNC(=O)[C@H](CC(C)C)NC(=O)[C@@H](N)Cc1ccccc1)C(C)C)C(N)=O` [FLGALGNALSRVL], the MIC is over 64 µM in experiment [4], over 64 µM in experiment [1], 32 µM (≈ 42.5 µg/mL) in experiment [2] and over 64 µM in [3].
Turning to `CC(C)C[C@H](NC(=O)[C@@H]1CCCN1C(=O)[C@H](CCCCN)NC(=O)[C@@H]1CCCN1C(=O)[C@H](Cc1ccc(O)cc1)NC(=O)[C@H](CCCCN)NC(=O)[C@H](Cc1c[nH]c2ccccc12)NC(=O)[C@@H](N)CCCN=C(N)N)C(=O)N[C@@H](CCCCN)C(=O)N[C@@H](CCCN=C(N)N)C(=O)O` [RWKYPKPLKR], the MIC in [5] was over 72.9 µM; in experiment [1], 54.7 µM (≈ 75 µg/mL); in experiment [6], 54.7 µM (≈ 75 µg/mL); in [7], 27.3 µM (≈ 37.5 µg/mL).
Regarding `CC[C@H](C)[C@H](NC(=O)[C@H](Cc1ccc(O)cc1)NC(=O)[C@H](CCCCN)NC(=O)[C@H](CCCCN)NC(=O)[C@H](CC(C)C)NC(=O)[C@H](CC(C)C)NC(=O)[C@H](CCCCN)NC(=O)[C@H](CCCCN)NC(=O)[C@@H](NC(=O)[C@H](CC(C)C)NC(=O)[C@@H](N)CCCCN)C(C)C)C(=O)N[C@H](C(=O)N[C@@H](Cc1ccccc1)C(=O)O)[C@@H](C)O` [KLVKKLLKKYITF], the MIC in experiment [5] is over 64 µM; in experiment [8], over 64 µM; in experiment [1] it was over 64 µM; against Acinetobacter baumannii, at least 64 µM; in [9], 4 µM (≈ 6.49 µg/mL).
Regarding `CC(C)C[C@H](NC(=O)[C@H](CCCCN)NC(=O)[C@H](CCCCN)NC(=O)[C@H](C)NC(=O)[C@H](CC(C)C)NC(=O)[C@H](CCCCN)NC(=O)[C@H](C)NC(=O)[C@H](CCCCN)NC(=O)[C@H](CCCCN)NC(=O)[C@H](C)NC(=O)[C@H](CC(C)C)NC(=O)[C@H](CCCCN)NC(=O)[C@H](CCCCN)NC(=O)[C@H](C)NC(=O)[C@@H](N)Cc1ccccc1)C(N)=O` [FAKKLAKKAKLAKKL], the MIC is 119 µM (≈ 200 µg/mL) in [10] and 59.3 µM (≈ 99.9 µg/mL) in experiment [9].
Regarding `CC[C@H](C)[C@H](NC(=O)[C@@H](NC(=O)[C@H](Cc1cnc[nH]1)NC(=O)[C@@H]1CCCN1C(=O)[C@@H](NC(=O)[C@H](CC(C)C)NC(=O)[C@H](CO)NC(=O)[C@H](CC(C)C)NC(=O)[C@@H](N)Cc1ccccc1)[C@@H](C)CC)C(C)C)C(=O)N[C@@H](CO)C(=O)N[C@@H](C)C(=O)N[C@H](C(=O)N1CCC[C@H]1C(=O)N[C@@H](Cc1cnc[nH]1)C(=O)N[C@H](C(=O)N[C@H](C(=O)N[C@@H](CC(N)=O)C(=O)N[C@@H](C)C(=O)N[C@@H](CC(C)C)C(=O)N[C@@H](CO)C(=O)N[C@@H](CC(N)=O)C(=O)N[C@@H](CC(C)C)C(N)=O)C(C)C)C(C)C)[C@@H](C)CC` [FLSLIPHVISAIPHVVNALSNL], the MIC in [5] was over 218 µM; against Candida albicans, over 218 µM; in experiment [1], over 218 µM; against Klebsiella pneumoniae, over 189 µM.
For `CC(C)C[C@H](NC(=O)[C@H](CCCCN)NC(=O)[C@H](CC(C)C)NC(=O)[C@H](C)NC(=O)[C@H](CCCCN)NC(=O)[C@H](C)NC(=O)[C@H](CC(C)C)NC(=O)[C@H](CC(C)C)NC(=O)[C@H](CCCCN)NC(=O)[C@H](CCCCN)NC(=O)[C@H](C)NC(=O)[C@@H](N)Cc1ccccc1)C(N)=O` [FAKKLLAKALKL], the minimal inhibitory concentration (MIC) in experiment [10] was over 149 µM; in experiment [9] it was 149 µM (≈ 200 µg/mL).
Consider `CC[C@H](C)[C@H](NC(=O)[C@H](CC(N)=O)NC(=O)[C@H](CCCCN)NC(=O)[C@H](CC(C)C)NC(=O)[C@H](Cc1ccccc1)NC(=O)[C@@H](NC(=O)[C@H](CCCCN)NC(=O)[C@H](Cc1c[nH]c2ccccc12)NC(=O)[C@H](CO)NC(=O)[C@H](C)N)C(C)C)C(=O)NCC(=O)N[C@@H](CCCCN)C(=O)N[C@@H](C)C(=O)N[C@@H](C)C(=O)NCC(=O)N[C@@H](CCCCN)C(=O)N[C@@H](C)C(=O)N[C@H](C(=O)N[C@@H](CC(C)C)C(=O)N[C@@H](CC(N)=O)C(=O)N[C@@H](CO)C(=O)N[C@H](C(=O)N[C@H](C(=O)N[C@@H](CC(=O)O)C(=O)N[C@@H](CCSC)C(=O)N[C@H](C(=O)N[C@@H](CC(N)=O)C(=O)N[C@@H](CCC(N)=O)C(N)=O)C(C)C)[C@@H](C)O)C(C)C)C(C)C` [ASWKVFLKNIGKAAGKAVLNSVTDMVNQ], for which the MIC in experiment [5] was 2.68 µM (≈ 8.01 µg/mL); in the experiment with Staphylococcus aureus it was 2.68 µM (≈ 8.01 µg/mL); in the experiment on Candida albicans it was 10.7 µM (≈ 32 µg/mL); in experiment [1], 2.68 µM (≈ 8.01 µg/mL); in the experiment on Klebsiella pneumoniae, 10.7 µM (≈ 32 µg/mL).
With `CC(C)C[C@H](NC(=O)[C@H](C)NC(=O)[C@H](CCCCN)NC(=O)[C@H](CCCCN)NC(=O)[C@H](C)NC(=O)[C@H](CCCCN)NC(=O)[C@H](CCCCN)NC(=O)[C@H](CC(C)C)NC(=O)[C@H](C)NC(=O)[C@H](CCCCN)NC(=O)[C@H](CCCCN)NC(=O)[C@H](C)NC(=O)[C@H](CC(C)C)NC(=O)[C@H](C)NC(=O)[C@@H](N)Cc1ccccc1)C(N)=O` [FALAKKALKKAKKAL], the MIC came to 61.4 µM (≈ 99.9 µg/mL) in experiment [10] and 15.3 µM (≈ 25 µg/mL) in experiment [9].
In the same order, the values of `CC(C)C[C@H](NC(=O)[C@H](C)NC(=O)[C@H](CCCCN)NC(=O)[C@H](CCCCN)NC(=O)[C@H](CC(C)C)NC(=O)[C@H](C)NC(=O)[C@H](CCCCN)NC(=O)[C@H](CC(C)C)NC(=O)[C@H](C)NC(=O)[C@H](CC(C)C)NC(=O)[C@H](C)NC(=O)[C@@H](N)Cc1ccccc1)C(N)=O` [FALALKALKKAL] are 3.89 µM (≈ 5 µg/mL) and 38.9 µM (≈ 50 µg/mL).
Consider `CC[C@H](C)[C@H](NC(=O)[C@H](CCCCN)NC(=O)[C@H](CS)NC(=O)[C@H](C)NC(=O)[C@@H](NC(=O)[C@H](Cc1ccccc1)NC(=O)CNC(=O)[C@H](CC(C)C)NC(=O)CNC(=O)[C@@H](NC(=O)[C@H](CCCN=C(N)N)NC(=O)CNC(=O)[C@H](CC(C)C)NC(=O)[C@H](CC(N)=O)NC(=O)[C@H](CCCCN)NC(=O)[C@H](CC(C)C)NC(=O)[C@@H](NC(=O)[C@H](CO)NC(=O)[C@H](CC(C)C)NC(=O)[C@H](CCSC)NC(=O)[C@@H](N)CO)C(C)C)C(C)C)C(C)C)C(=O)N[C@@H](CC(N)=O)C(=O)N[C@@H](CCCCN)C(=O)N[C@@H](CCC(N)=O)C(=O)N[C@@H](CS)C(=O)O` [SMLSVLKNLGRVGLGFVACKINKQC], for which the MIC came out at 100 µM (≈ 268 µg/mL) against Staphylococcus aureus, 100 µM (≈ 268 µg/mL) in the experiment with Candida albicans and 20 µM (≈ 53.6 µg/mL) against Escherichia coli.
Consider `CC(C)[C@H](NC(=O)CNC(=O)[C@@H](N)Cc1cnc[nH]1)C(=O)N[C@@H](CO)C(=O)NCC(=O)N[C@@H](Cc1cnc[nH]1)C(=O)NCC(=O)N[C@@H](CCC(N)=O)C(=O)N[C@@H](Cc1cnc[nH]1)C(=O)NCC(=O)N[C@H](C(=O)N[C@@H](Cc1cnc[nH]1)C(=O)NCC(=O)O)[C@@H](C)O` [HGVSGHGQHGTHG], for which the MIC in experiment [5] worked out at 6.31 µM (≈ 8 µg/mL); in experiment [11], 12.6 µM (≈ 16 µg/mL); in the experiment with Staphylococcus aureus it was 12.6 µM (≈ 16 µg/mL); in experiment [12] it was 6.31 µM (≈ 8 µg/mL); in [1], 3.16 µM (≈ 4 µg/mL); against Escherichia coli, 6.31 µM (≈ 8 µg/mL). In addition, the MIC stood at 6.31 µM (≈ 8 µg/mL) in experiment [13], 12.6 µM (≈ 16 µg/mL) in the experiment on Pseudomonas aeruginosa and 6.31 µM (≈ 8 µg/mL) with Klebsiella pneumoniae.
`CC[C@H](C)[C@H](NC(=O)CNC(=O)[C@H](CO)NC(=O)[C@H](CC(C)C)NC(=O)[C@H](C)NC(=O)[C@H](CC(=O)O)NC(=O)[C@H](CC(C)C)NC(=O)[C@H](CC(C)C)NC(=O)CN)C(=O)N[C@@H](CC(C)C)C(=O)NCC(=O)N[C@@H](CC(C)C)C(N)=O` [GLLDALSGILGL]: the MIC against Micrococcus luteus is 21.9 µM (≈ 25 µg/mL).

(Values after DBAASP.)
